Where two headings read alike, the source gives them in different places.
Experiments:
[1] = Antioxidant activity, DPPH spectrophotometric method; conditions: DPPH, absorbance at 515 nm
Protocol: The antioxidant activity assays were carried out according to the 2,2-diphenyl-1-picrylhydrazyl (DPPH) spectrophotometric method.[34] Initially, to assess whether the compounds had antioxidant activity and to define the time required by each antioxidant to reach the steady state, the reduction in absorbance over time at 515 nm of a solution of DPPH mixed with the tested compound was recorded until reaching the plateau. […] The value of EC50 can be extrapolated by plotting the percentage of residual DPPH at the steady state as a function of the molar ratio of the antioxidant to initial DPPH.
2,2-Diphenyl-1-picrylhydrazyl (DPPH), MeOH, and ascorbic acid, used as the reference standard, were purchased from Sigma-Aldrich. Micropipettes Labmate (BRAND Dig. 10–100 μL; Dig. 100–1000 μL) and Transferpette (HIGH TECH LAB LM200: 20–200 μL; LM5000: 1000–5000 μL) were used to collect the samples. The assays were carried out by a double beam UV–vis Lambda 40 Perkin Elmer spectrophotometer using optical polystyrene cuvettes (10 × 10 × 45 mm, 340–800 nm optical transparency); each measure was repeated at least in triplicate. For data processing, UV-WIN Lab version 2.0 (Perkin Elmer Corporation) was used. The antioxidant activity of the tested compounds was evaluated by the DPPH method[34] based on the ability of antioxidant compounds to react with the stable radical DPPH, which has a maximum absorption at about 515 nm. Thus, by measuring the decrease in absorbance over time of DPPH solutions to which increasing amounts of the tested compound are added, the antioxidant activity of the compound can be determined.
[…]. To 2.90 mL of MeOH, 60 μL of a DPPH solution in MeOH (∼1.2 mM) and 40 μL of an antioxidant solution in MeOH (4.5 mM) were added to have in the cuvette concentrations of DPPH equal to about 25 μM and of antioxidant equal to 60 μM. The exact DPPH concentration was calculated through the Lambert–Beer relation, known the extinction coefficient of DPPH at 515 nm, equal to 1.25 × 10^4.[34] The absorbance was recorded until the plateau was reached.
. To obtain the initial DPPH concentration, 2.94 mL of MeOH and 60 μL of the DPPH solution in MeOH (∼1.2 mM) were placed in a polystyrene cuvette and the absorbance was recorded at 515 nm. The exact initial DPPH concentration was calculated through the Lambert–Beer relation. For subsequent measurements, the cuvettes were set up by introducing the opportune volume of MeOH to reach a total volume of 3 mL, 60 μL of the DPPH solution in MeOH (∼1.2 mM, to have a final concentration of ∼25 μM), and the appropriate volumes of the antioxidant stock solution in MeOH to have final concentrations between 1.5 and 12 μM for 20 and between 5 and 60 μM for 18 and 30; the absorbance was recorded at 515 nm at the plateau and then after 1 min for compound 20 and after 90 min for compounds 18 and 30. Each measure was repeated four times. With absorbance data, the percentages of residual DPPH at steady state were obtained using the following equation: [drawing 3] where Ac is the average of absorbance in the presence of antioxidant at plateau and A0 is the average of the initial absorbance of DPPH.
The same procedure was performed using ascorbic acid as the antioxidant at cuvette concentrations between 1.5 and 18 μM, recording the absorbance at 515 nm after 2 min from the preparation of the cuvettes.

equine BChE (eqBChE) = target: T1, equine BChE (eqBChE) (Equus caballus, UniProt P81908); assay: Percent inhibition of eqBChE, Ellman's spectrophotometric method; format: biochemical; conditions: for % inhibition vs eqBChE ± SD (900 uM): 900 nM; for inhibition at 0.9 µM: [I] 900 nM
T1 construct: purchased Sigma-Aldrich (Milan, Italy)
Protocol: On the synthesized compounds, enzymatic inhibition studies were carried out toward Electrophorus electricus AChE (EeAChE) and equine BChE (eqBChE) according to Ellman’s spectrophotometric method.[25]
(§1) All other chemical and biological reagents and solvents used were of the highest analytical, commercially available grade. The water, utilized for the preparation of the phosphate buffer and of the compound solutions, was distilled and filtered on nylon membrane filters with a 0.2 μm pore size with the Millipore Filtration apparatus before each use. Micropipettes Labmate (BRAND Dig. 10–100 μL; Dig. 100–1000 μL; Dig. 0.1–2 μL) and Transferpette (HIGH TECH LAB LM200: 20–200 μL; LM5000: 1000–5000 μL) were used to collect the samples. The assays were carried out by a double beam UV–vis Lambda 40 Perkin Elmer spectrophotometer using optical polystyrene cuvettes (10 × 10 × 45 mm, 340–800 nm optical transparency); each measure was repeated at least in triplicate. […] The spectrophotometric method of Ellman[25] with minor modifications was used to evaluate the inhibition of ChEs. […] EeAChE and eqBChE were periodically tested to evaluate the effective enzymatic activity.
(§2) For all the synthesized compounds, the percentages of inhibition toward AChE of Electrophorus electricus (EeAChE) and equine BChE (eqBChE) were evaluated.
(§3) Three milliliters of a solution in 0.1 M phosphate buffer (pH = 7.4) containing DTNB (0.25 mM) and EeAChE (0.083 UmL^–1) or eqBChE (0.083 UmL^–1) was placed in a polystyrene cuvette of 1.0 cm path length; 1 μL of a solution in DMSO of the tested compound was added to obtain a cuvette concentration range of 9–0.09 μM. With this solution, the blank was made. […] Each experiment was repeated at least in triplicate.

[2] = target: T2, Electrophorus electricus AChE (EeAChE) (Electrophorus electricus, UniProt O42275); assay: Percent inhibition of EeAChE, Ellman's spectrophotometric method; format: biochemical; conditions: for inhibition at 900 µM: read-out: % inhibition vs EeAChE ± SD (900 uM), 900 uM; for inhibition at 0.9 µM: read-out: % inhibition vs EeAChE ± SD, [I] 900 nM
T2 construct: purchased Sigma-Aldrich (Milan, Italy)
Protocol: as §1, §2
as §3, with “solution in DMSO of the tested compound was added to obtain a cuvette concentration range of 9–0.09 μM.” left out

[3] = [I] 9 μM, 0.0833 U/mL enzyme, 100 μM acetylthiocholine, read-out: % inhibition vs eqBChE ± SD
[4] = read-out: % inhibition vs eqBChE ± SD (9 uM), 9 uM, supplement csv
[5] = read-out: % inhibition vs EeAChE ± SD (9 uM), 9 uM, supplement csv
[6] = read-out: % inhibition vs EeAChE ± SD, [I] 9 μM, 0.0833 U/mL enzyme, 100 μM acetylthiocholine
[7] = 0.0833 U/mL enzyme, 100 μM acetylthiocholine
[8] = 0.0833 U/mL enzyme, 100 μM acetylthiocholine, read-out: % inhibition vs eqBChE ± SD

T2 sequence (O42275 24-633): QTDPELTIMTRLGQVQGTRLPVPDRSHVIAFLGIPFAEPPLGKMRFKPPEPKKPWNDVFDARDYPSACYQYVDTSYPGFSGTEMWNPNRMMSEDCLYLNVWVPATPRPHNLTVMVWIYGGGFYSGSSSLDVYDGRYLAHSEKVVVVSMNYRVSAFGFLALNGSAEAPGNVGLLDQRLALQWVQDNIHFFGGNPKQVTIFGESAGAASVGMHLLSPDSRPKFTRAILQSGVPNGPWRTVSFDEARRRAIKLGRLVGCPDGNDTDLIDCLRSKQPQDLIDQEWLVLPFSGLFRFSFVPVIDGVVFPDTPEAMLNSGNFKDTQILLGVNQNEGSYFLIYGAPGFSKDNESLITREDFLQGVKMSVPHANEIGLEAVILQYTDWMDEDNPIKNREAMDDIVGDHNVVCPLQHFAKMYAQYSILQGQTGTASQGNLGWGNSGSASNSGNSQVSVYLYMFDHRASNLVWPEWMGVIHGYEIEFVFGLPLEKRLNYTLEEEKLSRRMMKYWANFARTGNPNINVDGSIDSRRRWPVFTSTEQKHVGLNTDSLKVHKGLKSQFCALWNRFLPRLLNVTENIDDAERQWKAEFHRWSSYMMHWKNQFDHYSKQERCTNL
T1 sequence (P81908 whole entry): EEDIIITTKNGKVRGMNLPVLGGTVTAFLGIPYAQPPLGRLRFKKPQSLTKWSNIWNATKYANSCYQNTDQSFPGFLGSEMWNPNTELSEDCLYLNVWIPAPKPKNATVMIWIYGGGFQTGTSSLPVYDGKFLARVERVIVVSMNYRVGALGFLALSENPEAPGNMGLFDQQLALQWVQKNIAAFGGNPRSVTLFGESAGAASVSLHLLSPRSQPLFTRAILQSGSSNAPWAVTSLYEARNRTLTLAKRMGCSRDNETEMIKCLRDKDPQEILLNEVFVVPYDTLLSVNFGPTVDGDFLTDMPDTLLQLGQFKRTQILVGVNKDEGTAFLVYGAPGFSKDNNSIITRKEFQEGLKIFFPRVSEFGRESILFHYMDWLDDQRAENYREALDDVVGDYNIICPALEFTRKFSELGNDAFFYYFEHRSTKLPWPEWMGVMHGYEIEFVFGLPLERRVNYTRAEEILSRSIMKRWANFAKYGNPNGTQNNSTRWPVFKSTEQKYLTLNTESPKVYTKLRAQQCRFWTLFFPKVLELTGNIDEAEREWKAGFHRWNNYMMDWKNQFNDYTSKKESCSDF

SMILES | reaction time (time for reaching the plateau) [1] | inhibition at 9 µM (equine BChE (eqBChE); [3]) | inhibition at 9 µM (equine BChE (eqBChE); [4]) | inhibition at 9 µM [2, 5] | inhibition at 9 µM [2, 6] | inhibition at 900 µM ([2]; supplement csv) | inhibition at 0.9 µM [2, 7] | % inhibition vs eqBChE ± SD (900 uM) (equine BChE (eqBChE); supplement csv) | inhibition at 0.9 µM (equine BChE (eqBChE); [8])
CC(C)(C)OC(=O)NCCCCCCNc1ncccn1 [Compound 2, tert-Butyl {6-[(Pyrimidin-2-yl)amino]hexyl}carbamate] | 1 min |  |  |  |  |  |  |  | 
Brc1ccc(CNCCCCCNc2ncccn2)cc1 [Compound 10, N^1-(4-Bromobenzyl)-N^5-(pyrimidin-2-yl)pentane-1,5-diamine] |  | 17.1 ± 0.9% | 17.1 ± 0.9% | 14.5 ± 0.7% | 14.5 ± 0.7% |  |  |  | 
COc1ccccc1CNCCCCCNc1ncccn1 [Compound 11, N^1-(2-Methoxybenzyl)-N^5-(pyrimidin-2-yl)pentane-1,5-diamine] |  | 22.1 ± 1.3% | 22.1 ± 1.3% | 62.2 ± 0.9% | 60 to 70% | 14.6 ± 0.6% | 14.6 ± 0.6% |  | 
Clc1cc(CNCCCCCNc2ncccn2)cc(Cl)n1 [Compound 12, N^1-((2,6-Dichloropyridin-4-yl)methyl)-N^5-(pyrimidin-2-yl)pentane-1,5-diamine] |  | 8.5 ± 1.3% | 8.5 ± 1.3% | 16.5 ± 2% | 16.5 ± 2% |  |  |  | 
Brc1ccc(CNCCCCCCNc2ncccn2)cc1 [Compound 14, N^1-(4-Bromobenzyl)-N^6-(pyrimidin-2-yl)hexane-1,6-diamine] |  | 38.6 ± 5.5% | 38.6 ± 5.5% | 23 ± 1.6% | 23 ± 1.6% |  |  | 6.6 ± 0.2% | 6.6 ± 0.2%
Clc1ccc(CNCCCCCCNc2ncccn2)cc1 [Compound 15, N^1-(4-Chlorobenzyl)-N^6-(pyrimidin-2-yl)hexane-1,6-diamine] |  | 21.5 ± 1.2% | 21.5 ± 1.2% | 29.9 ± 1.2% | 29.9 ± 1.2% |  |  |  | 
COc1ccccc1CNCCCCCCNc1ncccn1 [Compound 16, N^1-(2-Methoxybenzyl)-N^6-(pyrimidin-2-yl)hexane-1,6-diamine] |  | 43.9 ± 4.8% | 43.9 ± 4.8% | 68.3 ± 0.7% | 60 to 70% | 15.7 ± 1.1% | 15.7 ± 1.1% | 6.2 ± 0.4% | 6.2 ± 0.4%
COc1cc(CNCCCCCCNc2ncccn2)cc(OC)c1OC [Compound 17, N^1-(Pyrimidin-2-yl)-N^6-(3,4,5-trimethoxybenzyl)hexane-1,6-diamine] |  | 29.4 ± 4.5% | 29.4 ± 4.5% | 16.4 ± 2.8% | 16.4 ± 2.8% |  |  |  | 
